Laboratory results from PMC4365786 (Chemistry & biology, 2015).

What was measured:
[1] = tested on: acetylated histones in HCT116 cells; assay: Western blotting of histone acetylation after 1 h exposure; type: cell-based; conditions: TSA 0.2 μM, other compounds 2 μM
[2] = tested on: histone acetylation (H3K18ac) in HCT116 cells; assay: Drug washout, histone acetylation by Western blotting; type: cell-based; conditions: 6 h pulse then washout, time counted from drug addition
HCT116 cells = assay: Cell viability assay; type: cell-based; conditions: Homo sapiens, HCT-116, 96 h, read-out: IC50 for killing HCT116 cells
MDA-MB-231 cells [3] = assay: Cell cycle analysis by FACS; type: cell-based; conditions: MDA-MB-231, 24 h exposure
HepG2 cells = assay: Cell viability assay; type: cell-based; conditions: CellTiter-Glo, 96 h
[4] = tested on: α-tubulin acetylation in HCT116 and A549 cells; assay: Western blotting of α-tubulin acetylation; type: cell-based; conditions: TSA 0.2 μM, UF010 2 μM, 1 h before lysis
MDA-MB-231 cells [5] = assay: Cell viability assay; type: cell-based; conditions: read-out: IC50 viability MDA-MB-231, CellTiter-Glo, 96 h (Fig. 3C)
MDA-MB-231 cells [6] = assay: Wound healing cell migration assay; type: cell-based; conditions: MDA-MB-231 monolayer scratch; UF010 at 1 μM
HDACs in HCT116 = type: cell-based; conditions: HCT116 (Fig. 2C) and HepG2 cells (data not shown)
Sin3 complex = assay: Inhibition of the Sin3 complex; conditions: data not shown
HDAC2 = HDAC2 (Homo sapiens, UniProt Q92769); assay: HDAC2 inhibition kinetics; type: biochemical; conditions: purified HDAC2
Sequence of HDAC2 (Q92769 whole entry): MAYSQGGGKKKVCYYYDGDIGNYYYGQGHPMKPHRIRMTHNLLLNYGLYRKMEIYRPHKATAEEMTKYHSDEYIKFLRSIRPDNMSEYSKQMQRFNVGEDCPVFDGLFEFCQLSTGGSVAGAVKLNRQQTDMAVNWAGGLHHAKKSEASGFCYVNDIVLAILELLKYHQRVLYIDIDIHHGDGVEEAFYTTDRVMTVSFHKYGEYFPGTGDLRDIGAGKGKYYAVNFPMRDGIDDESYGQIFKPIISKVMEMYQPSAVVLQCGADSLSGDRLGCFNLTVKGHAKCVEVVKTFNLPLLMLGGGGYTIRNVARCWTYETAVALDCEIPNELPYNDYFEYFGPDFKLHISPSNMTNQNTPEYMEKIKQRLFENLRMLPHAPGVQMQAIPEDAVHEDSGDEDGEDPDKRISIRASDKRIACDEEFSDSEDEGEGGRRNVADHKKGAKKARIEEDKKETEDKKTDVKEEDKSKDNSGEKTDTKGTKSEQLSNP

[7] = bovine, serum

Structure (SMILES)	induction of histone acetylation [1]	time up to which induced histone acetylation was maintained [2]	effect on cell cycle progression (MDA-MB-231 cells [3])	effect on α-tubulin acetylation [4]	other results
Nc1ccccc1NC(=O)c1ccc(CNC(=O)OCc2cccnc2)cc1 [MS-275, entinostat]	only slightly induced acetylation at several sites but failed to induce acetylation at most sites	at least 48 h	–	–	IC50 (HCT116 cells): 2.1 µM
C/C=C1\NC(=O)[C@H]2CSSCC/C=C/[C@H](CC(=O)N[C@H](C(C)C)C(=O)N2)OC(=O)[C@H](C(C)C)NC1=O [Romi-depsin, romidepsin]	–	up to 24 h	–	–	–
O=C(CCCCCCC(=O)Nc1ccccc1)NO [SAHA, vorinostat, reference compound]	–	–	inhibited G1/S progression at 1 μM but induced a strong G2/M block at 10 μM	–	–
CCCCNNC(=O)c1ccc(N(C)C)cc1 [SR-3208]	–	–	–	–	fold more potent than UF010 in eliciting cytotoxicity (HepG2 cells): 3 fold
CC(/C=C/C(=O)NO)=C\[C@@H](C)C(=O)c1ccc(N(C)C)cc1 [TSA, trichostatin A, reference compound]	strongly induced acetylation at some sites but weakly at other sites	–	–	dramatically increased	–
CCCCNNC(=O)c1ccc(Br)cc1 [UF010]	consistently induced the accumulation of acetylated histones at all sites	up to 96 h	mainly blocked G1/S transition	had no effect	IC50 (MDA-MB-231 cells [5]): 29.1 µM; effect on cell migration (MDA-MB-231 cells [6]): markedly slowed migration; fold more potent than MS-275 against HDACs in cells (HDACs in HCT116): about 5 fold; inhibition of the Sin3 complex (Sin3 complex): can inhibit; mechanism of HDAC2 inhibition vs. substrate (HDAC2): competitive inhibitor; half-life in cell culture medium [7]: 15.8 h
